Data set [1] concerns Hepatitis C virus subtype 4a. Description: Inhibition of HCV genotype 4a NS5A after 3 day incubation by RT-PCR-cell-based HCV replicon assay. A general note: In antiviral work, replicon cells carry a viral genome segment that copies itself.
The test system of data set [2] is Hepatitis C virus subtype 3a. Briefly: Inhibition of HCV genotype 3a NS5A after 3 day incubation by RT-PCR-cell-based HCV replicon assay.
For data set [3], the system named is T1, Nonstructural protein 5A (Hepatitis C virus), Q5L478 [Y93H].
T1 sequence (whole entry): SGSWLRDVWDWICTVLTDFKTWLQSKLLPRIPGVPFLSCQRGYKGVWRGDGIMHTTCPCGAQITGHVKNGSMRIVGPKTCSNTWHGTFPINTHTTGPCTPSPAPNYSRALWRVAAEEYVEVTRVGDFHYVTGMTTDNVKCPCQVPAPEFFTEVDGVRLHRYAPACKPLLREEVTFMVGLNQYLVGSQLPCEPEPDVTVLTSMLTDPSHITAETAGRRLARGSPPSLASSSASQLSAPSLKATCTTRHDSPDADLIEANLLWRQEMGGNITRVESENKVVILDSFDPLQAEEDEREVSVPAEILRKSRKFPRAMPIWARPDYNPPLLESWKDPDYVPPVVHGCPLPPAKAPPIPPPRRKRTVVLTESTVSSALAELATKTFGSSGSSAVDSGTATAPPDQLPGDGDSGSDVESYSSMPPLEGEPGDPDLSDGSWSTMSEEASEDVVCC
Description: Inhibition of HCV genotype 1a NS5A Y93H mutant after 3 day incubation by RT-PCR-cell-based HCV replicon assay. Conditions: Hepatitis C virus subtype 1a.

For data set [4], the system named is Nonstructural protein 5A (Hepatitis C virus), Q5L478 [UNDEFINED MUTATION]. Briefly: Inhibition of HCV genotype 1a NS5A L31V mutant after 3 day incubation by RT-PCR-cell-based HCV replicon assay. The following applies: Hepatitis C virus subtype 1a.
The subject of data set [5] is Hepatitis C virus subtype 1a. Briefly: Inhibition of HCV genotype 1a NS5A after 3 day incubation by RT-PCR-cell-based HCV replicon assay.
Data set [6] has as its system Hepatitis C virus subtype 2b. Briefly: Inhibition of HCV genotype 2b NS5A harboring methionine at position 31 after 3 day incubation by RT-PCR-cell-based HCV replicon assay.
A short description of data set [7]: Clearance in rat at 2.5 mg/kg, iv or 5 mg/kg, po. The format is ADME, organism-based. The following applies: in vivo.
Data set [8] can be described thus: Half life in rat at 2.5 mg/kg, iv or 5 mg/kg, po. Type of data set: ADME, organism-based. Conditions: in vivo.
Data set [9] is described as follows: Cmax in rat at 2.5 mg/kg, iv or 5 mg/kg, po. Type of data set: ADME, organism-based. Conditions: in vivo.
Data set [10] can be described thus: AUC in rat at 5 mg/kg, po. The format is ADME, organism-based. Conditions: in vivo.
A short description of data set [11]: Oral bioavailability in rat at 5 mg/kg. The following applies: in vivo. Type of data set: ADME, organism-based.
The nature of data set [12]: Clearance in rat at 2 mg/kg, iv or 10 mg/kg, po. The format is ADME, organism-based. Conditions: in vivo.
The nature of data set [13]: Half life in rat at 2 mg/kg, iv or 10 mg/kg, po. Conditions: in vivo. Type of data set: ADME, organism-based.
Data set [14] in a line: Cmax in rat at 2 mg/kg, iv or 10 mg/kg, po. The format is ADME, organism-based. Conditions: in vivo.
Data set [15] is described as follows: AUC in rat at 10 mg/kg, po. The format is ADME, organism-based. The following applies: in vivo.
A short description of data set [16]: Oral bioavailability in rat at 10 mg/kg. Conditions: in vivo. The format is ADME, organism-based.
Data set [17] can be described thus: AUC in rat at 3 mg/kg, iv or 10 mg/kg, po. Type of data set: ADME, organism-based. The following applies: in vivo.

As usually defined, the EC90 is the point of the concentration-response curve where the effect stands at 90%. Higher therefore signals weaker potency. Usually half-life stands for the time in which the quantity being followed falls by half. What is called Cmax is the maximum level reached in the sampled fluid or tissue. The term AUC denotes concentration integrated over time. In general, bioavailability refers to the share of a dose that reaches the circulation, judged against a reference dose that is usually intravenous. Read a low bioavailability as little systemic uptake.

For the compound `COC(=O)N[C@H](C(=O)N1CCC[C@H]1c1ncc(-c2ccc3c(c2)Oc2ccc(-c4cnc([C@@H]5CCCN5C(=O)[C@@H](NC(=O)OC)C(C)C)[nH]4)c4c2N3CC4)[nH]1)C(C)C`, the concentration for an effect of 90% (EC90) is 8.17 nM in data set [1]; 4.42 nM in data set [2]; 685 nM in data set [3]; 100 nM in data set [4]; more than 0.1 nM in data set [5].

Consider `COC(=O)N[C@H](C(=O)N1CCC[C@H]1c1ncc(-c2ccc3c(c2)OCc2c-3c(=O)oc3cc(-c4cnc([C@@H]5CCCN5C(=O)[C@@H](NC(=O)OC)C(C)C)[nH]4)ccc23)[nH]1)C(C)C`, for which the EC90 in [1] was 0.18 nM; in data set [2] it was more than 1 nM; in data set [6] it was 113 nM; in data set [3] it was more than 50 nM; in data set [4] it was 58.6 nM; in data set [5] it was 0.01 nM.

Compound `COC(=O)N[C@H](C(=O)N1CCC[C@H]1c1ncc(-c2ccc3c(c2)Oc2ccc(-c4cnc([C@@H]5CCCN5C(=O)[C@@H](NC(=O)OC)C(C)C)[nH]4)c4occ-3c24)[nH]1)C(C)C` showed a clearance in [7] of 8.5 mL/min/kg. Further, the half-life in data set [8] was 1.9 h. Moreover, in data set [9], the Cmax worked out at 830 nM. The compound further showed an AUC in data set [10] of 4.28 µM·h. The EC90 was 0.31 nM in data set [1]; 0.32 nM in data set [2]; 100 nM in data set [6]; 132 nM in data set [3]; 100 nM in data set [4]; 0.03 nM in [5]. This compound displayed a bioavailability in data set [11] of 34%.

`COC(=O)N[C@H](C(=O)N1CCC[C@H]1c1ncc(-c2ccc3c(c2)Oc2ccc(-c4cnc([C@@H]5CCCN5C(=O)[C@@H](NC(=O)OC)C(C)C)[nH]4)c4c2N3CCC4)[nH]1)C(C)C`: the EC90 was 4.81 nM in data set [1]; more than 10 nM in data set [2]; 100 nM in [6]; 441 nM in [3]; 100 nM in data set [4]; more than 0.1 nM in [5].

As to `COC(=O)N[C@H](C(=O)N1CCC[C@H]1c1nc(-c2ccc3c(c2)O[C@@H](c2ccccc2)n2c-3cc3cc(-c4c[nH]c([C@@H]5CCCN5C(=O)[C@@H](NC(=O)OC)C(C)C)n4)ccc32)c[nH]1)C(C)C`, the EC90 was 0.016 nM in data set [1], 0.12 nM in data set [2], 11 nM in [6] and 0.006 nM in [5].

As to `COC(=O)N[C@H](C(=O)N1CCC[C@H]1c1ncc(-c2ccc3c(c2)Oc2ccc(-c4cnc([C@@H]5CCCN5C(=O)[C@@H](NC(=O)OC)C(C)C)[nH]4)c4cnn-3c24)[nH]1)C(C)C`, the EC90 in data set [1] was 0.76 nM; in data set [2], 1.59 nM; in data set [6], 100 nM; in data set [3] it was 124 nM; in data set [4] it was 62.3 nM; in data set [5] it was 0.04 nM.

On to `COC(=O)N[C@H](C(=O)N1CCC[C@H]1c1ncc(-c2ccc3c(c2)OCn2c-3cc3cc(-c4cnc([C@@H]5CCCN5C(=O)[C@@H](NC(=O)OC)C(C)C)[nH]4)ccc32)[nH]1)C(C)C`, for which the EC90 was 0.18 nM in [1]; more than 1 nM in data set [2]; 75.7 nM in data set [6]; more than 100 nM in data set [3]; 6.5 nM in data set [4]; 0.02 nM in [5].

In the case of `COC(=O)N[C@H](C(=O)N1CCC[C@H]1c1ncc(-c2ccc3c(c2)OC(C2CC2)C2=C3COc3cc(-c4cnc([C@@H]5CCCN5C(=O)[C@@H](NC(=O)OC)C(C)C)[nH]4)ccc32)[nH]1)C(C)C` (stereo not given in full), the EC90 was found to be 10.7 nM in data set [2]; 5.2 nM in data set [6]; 41 nM in data set [3]; 1.7 nM in [4]; 0.063 nM in data set [5].

For the compound `COC(=O)N[C@H](C(=O)N1CCC[C@H]1c1ncc(-c2ccc3c(c2)Oc2ccc(-c4cnc([C@@H]5CCCN5C(=O)[C@@H](NC(=O)OC)C(C)C)[nH]4)c4ccn-3c24)[nH]1)C(C)C`, the EC90 was determined as 0.31 nM in data set [1]; 0.69 nM in data set [2]; 122 nM in data set [3]; 90.2 nM in data set [4]; 0.06 nM in data set [5].

Compound `COC(=O)N[C@H](C(=O)N1CCC[C@H]1c1ncc(-c2ccc3c(c2)OCC2=C3COc3cc(-c4cnc([C@@H]5CCCN5C(=O)[C@@H](NC(=O)OC)C(C)C)[nH]4)ccc32)[nH]1)C(C)C` gave a clearance in [12] of 5.3 mL/min/kg. The compound also showed a half-life in data set [13] of 2.7 h. This compound also gave a Cmax in [14] of 660 nM. Moreover, in [15], the AUC came to 5.57 µM·h. Moreover, the EC90 was 0.18 nM in data set [1]; more than 1 nM in [2]; 24.7 nM in data set [6]; more than 100 nM in data set [3]; 0.33 nM in data set [4]; 0.01 nM in [5]. This compound also returned a bioavailability in data set [16] of 14%.

Consider `COC(=O)N[C@H](C(=O)N1CCC[C@H]1c1ncc(-c2ccc3c(c2)Oc2ccc(-c4cnc([C@@H]5CCCN5C(=O)[C@@H](NC(=O)OC)C(C)C)[nH]4)c4c2N3CCO4)[nH]1)C(C)C`, for which the EC90 in data set [1] is 2.48 nM; in data set [2], 4.69 nM; in [6] it was 100 nM; in [3], 361 nM; in data set [4], 100 nM; in [5], 0.005 nM.

Regarding `COC(=O)N[C@H](C(=O)N1CCC[C@H]1c1ncc(-c2ccc3c(c2)Oc2ccc(-c4cnc([C@@H]5CC(F)(F)CN5C(=O)[C@@H](NC(=O)OC)C(C)C)[nH]4)c4ccn-3c24)[nH]1)C(C)C`, the EC90 in data set [6] came to 342 nM; in [3] it was 22 nM; in data set [4], 17.2 nM; in [5], 0.02 nM. In data set [16], this compound displayed a bioavailability of 15%. The compound also returned an AUC in data set [17] of 3.98 µM·h.

As to `COC(=O)N[C@H](C(=O)N1CCC[C@H]1c1ncc(-c2ccc3c(c2)OC(c2ccccc2)C2=C3COc3cc(-c4cnc([C@@H]5CCCN5C(=O)[C@@H](NC(=O)OC)C(C)C)[nH]4)ccc32)[nH]1)C(C)C` (stereo not given in full), the EC90 is 0.17 nM in [1]; 0.56 nM in data set [2]; 8.46 nM in data set [6]; more than 100 nM in data set [3]; 0.28 nM in data set [4]; 0.017 nM in [5].

For the compound `COC(=O)N[C@H](C(=O)N1CCC[C@H]1c1ncc(-c2ccc3c(c2)OC(c2cccc(OC)c2)C2=C3COc3cc(-c4cnc([C@@H]5CCCN5C(=O)[C@@H](NC(=O)OC)C(C)C)[nH]4)ccc32)[nH]1)C(C)C` (stereo not given in full), the EC90 was determined as 1.93 nM in data set [2]; 4.7 nM in data set [6]; 12 nM in data set [3]; 0.3 nM in [4]; 0.039 nM in [5].

Regarding `COC(=O)N[C@H](C(=O)N1CCC[C@H]1c1ncc(-c2cc3c4c(c2)CCc2cc(-c5cnc([C@@H]6CCCN6C(=O)[C@@H](NC(=O)OC)C(C)C)[nH]5)cc(c2-4)CC3)[nH]1)C(C)C`, the EC90 in data set [1] is 0.8 nM; in data set [2], 2 nM; in data set [6], more than 100 nM; in data set [3] it was 57 nM; in data set [4], 18.9 nM; in [5] it was 0.05 nM.

Turning to `COC(=O)N[C@H](C(=O)N1CCC[C@H]1c1ncc(-c2cc3c4c(c2)CCc2cc(-c5cnc([C@@H]6C[C@@H](F)CN6C(=O)[C@@H](NC(=O)OC)C(C)C)[nH]5)cc(c2-4)CC3)[nH]1)C(C)C`, the EC90 in data set [1] is 5.5 nM; in [2] it was 6 nM; in data set [6], more than 100 nM; in data set [3] it was 22.7 nM; in [4], 26.2 nM; in data set [5], 0.052 nM.

Take `COC(=O)N[C@H](C(=O)N1CCC[C@H]1c1ncc(-c2ccc3c(c2)OC(C)C2=C3COc3cc(-c4cnc([C@@H]5CCCN5C(=O)[C@@H](NC(=O)OC)C(C)C)[nH]4)ccc32)[nH]1)C(C)C` (stereo not given in full): the EC90 in data set [6] was 28.1 nM; in data set [3], 55.1 nM; in data set [4] it was 1.52 nM; in data set [5], 0.028 nM.

In the case of `COC(=O)N[C@H](C(=O)N1CCC[C@H]1c1ncc(-c2cc3c4c(c2)CCc2cc(-c5cnc([C@@H]6CC(F)(F)CN6C(=O)[C@@H](NC(=O)OC)C(C)C)[nH]5)cc(c2-4)CC3)[nH]1)C(C)C`, the EC90 was 0.6 nM in data set [1]; more than 10 nM in data set [2]; more than 100 nM in data set [6]; 30.2 nM in [3]; 20.7 nM in [4]; 0.07 nM in [5].

The values above are taken from ChEMBL document CHEMBL3861993, “Alternative core development around the tetracyclic indole class of HCV NS5A inhibitors” (Bioorg Med Chem Lett, 2016).
